Marks after values point to notes of the source that are not given here.
Key:
human μ opioid receptor = human μ opioid receptor (Homo sapiens, UniProt P35372); type: biochemical
rats [1] = test: Tail-flick test in the rat after sc administration; type: in vivo; conditions: pair 15 vs 16
rats [2] = conditions: rat, cited from earlier work
δ opioid receptor = conditions: second value of μ:δ:κ; cited from earlier work
μ opioid receptor = conditions: first value of μ:δ:κ; cited from earlier work
κ opioid receptor = conditions: third value of μ:δ:κ; cited from earlier work
[3] = sc administration; cited from earlier work

human μ opioid receptor, sequence (P35372 whole entry): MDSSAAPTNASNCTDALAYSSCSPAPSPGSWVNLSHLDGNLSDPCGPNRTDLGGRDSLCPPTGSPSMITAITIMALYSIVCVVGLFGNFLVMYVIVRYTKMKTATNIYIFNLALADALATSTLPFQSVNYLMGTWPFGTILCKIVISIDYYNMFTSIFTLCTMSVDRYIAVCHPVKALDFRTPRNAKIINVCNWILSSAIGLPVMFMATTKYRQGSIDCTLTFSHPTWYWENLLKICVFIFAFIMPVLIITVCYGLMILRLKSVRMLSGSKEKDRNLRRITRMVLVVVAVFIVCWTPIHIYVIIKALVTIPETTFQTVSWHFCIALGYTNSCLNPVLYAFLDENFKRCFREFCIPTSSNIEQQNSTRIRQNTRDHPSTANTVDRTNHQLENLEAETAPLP

Compound | functional character at the μ receptor (human μ opioid receptor) | ED50 (nmol/kg, sc), time after drug administration 0.5 h (rats [2]) [nmol/kg] | ED50 (nmol/kg, sc), time after drug administration 1 h (rats [2]) | ED50 (nmol/kg, sc), time after drug administration 2 h (rats [2]) [nmol/kg] | also measured
Cl.Cl.O=C(O)CN[C@H]1CC[C@@]2(OCCCc3ccccc3)[C@H]3Cc4ccc(O)c5c4[C@@]2(CCN3CC2CC2)[C@H]1O5 [Compound 17, [[17-Cyclopropylmethyl-4,5α-epoxy-3-hydroxy-14β-[(3-phenylpropyl)oxy]morphinan-6α-yl]amino]acetic Acid Dihydrochloride] | highly potent partial agonists |  |  |  | 
Cl.Cl.O=C(O)CN[C@@H]1CC[C@@]2(OCCCc3ccccc3)[C@H]3Cc4ccc(O)c5c4[C@@]2(CCN3CC2CC2)[C@H]1O5 [Compound 18, [[17-Cyclopropylmethyl-4,5α-epoxy-3-hydroxy-14β-[(3-phenylpropyl)oxy]morphinan-6β-yl]amino]acetic Acid Dihydrochloride] | highly potent partial agonists |  |  |  | 
CC(C)(C)OC(=O)CN[C@@H]1CC[C@@]2(OCCCc3ccccc3)[C@H]3Cc4ccc(O)c5c4[C@@]2(CCN3CC2CC2)[C@H]1O5 [Compound 16] |  |  |  |  | difference in the potency between α and β epimers (rats [1]): 13 fold
CO[C@@]12CC[C@H](NCC(=O)O)[C@@H]3Oc4c(O)ccc5c4[C@@]31CCN(C)[C@@H]2C5 [Compound 9] |  | 137 | 58.5 ^c nmol/kg | 143 | ED50 (nmol/kg, sc), time after drug administration 3 h (rats [2]; 3 h): 437 nmol/kg
O=C1CC[C@@]2(O)[C@H]3Cc4ccc(O)c5c4[C@@]2(CCN3CC2CC2)[C@H]1O5 [naltrexone] |  |  |  |  | binding affinity δ (δ opioid receptor): 8.70; binding affinity μ (μ opioid receptor): 0.20; binding affinity κ (κ opioid receptor): 0.40
CO[C@@]12CC[C@@H](NCC(=O)O)[C@@H]3Oc4c(O)ccc5c4[C@@]31CCN(C)[C@@H]2C5 [Compound 10, 2-[(4,5α-Epoxy-3-hydroxy-14β-methoxy-17-methylmorphinan-6β-yl)amino] acetic Acid] |  | 50.8 | 29.0 ^c nmol/kg | 43.3 | antinociceptive potency lower than that of 14-O-methyloxymorphone (1) [3]: 2 fold
